Reference: publication PMC7203124, “Structural Basis for PPARα Activation by 1H-pyrazolo-[3,4-b]pyridine Derivatives” (Scientific Reports, 2020)

Biological target: T1, PPARα (Homo sapiens, UniProt Q07869, I272F)
T1 construct: gene PPARA; hPPARα LBD
T1 sequence (Q07869 199-468 I272F limits assumed): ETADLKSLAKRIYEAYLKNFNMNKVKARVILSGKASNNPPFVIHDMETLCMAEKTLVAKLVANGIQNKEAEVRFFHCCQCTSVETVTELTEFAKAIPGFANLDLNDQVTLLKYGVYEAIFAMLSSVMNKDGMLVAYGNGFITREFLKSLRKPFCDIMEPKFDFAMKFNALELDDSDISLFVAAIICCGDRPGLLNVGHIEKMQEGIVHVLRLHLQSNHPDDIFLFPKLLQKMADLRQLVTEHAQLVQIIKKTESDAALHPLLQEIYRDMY
Assay: transactivation reporter assay at […]
Type: cell-based

Question: Which “transactivation reporter assay at 10 μM” value does the source give for `CC(C)(Oc1ccc(C(=O)c2ccc(Cl)cc2)cc1)C(=O)O` [fenofibric acid] here?
Answer: while fenofibric acid showed comparable activity between WT and Ile272Phe
